What follows are molecules tested against T1, Furin (Homo sapiens, UniProt P09958) (assay: Furin enzymatic assay, IC50 determination with Pyr-RTKR-AMC substrate). Details: furin 50 nM, Pyr-RTKR-AMC 25 μM, 30 min preincubation; read-out: IC50 against Furin.
T1 construct: Purification of Soluble Furin; inferred from purification by Ni2+-chelating chromatography and imidazole elution; made in house; host or cells: MDCK cells (furin-overexpressing), secreted into culture medium
T1 sequence (P09958 108-715 limits assumed): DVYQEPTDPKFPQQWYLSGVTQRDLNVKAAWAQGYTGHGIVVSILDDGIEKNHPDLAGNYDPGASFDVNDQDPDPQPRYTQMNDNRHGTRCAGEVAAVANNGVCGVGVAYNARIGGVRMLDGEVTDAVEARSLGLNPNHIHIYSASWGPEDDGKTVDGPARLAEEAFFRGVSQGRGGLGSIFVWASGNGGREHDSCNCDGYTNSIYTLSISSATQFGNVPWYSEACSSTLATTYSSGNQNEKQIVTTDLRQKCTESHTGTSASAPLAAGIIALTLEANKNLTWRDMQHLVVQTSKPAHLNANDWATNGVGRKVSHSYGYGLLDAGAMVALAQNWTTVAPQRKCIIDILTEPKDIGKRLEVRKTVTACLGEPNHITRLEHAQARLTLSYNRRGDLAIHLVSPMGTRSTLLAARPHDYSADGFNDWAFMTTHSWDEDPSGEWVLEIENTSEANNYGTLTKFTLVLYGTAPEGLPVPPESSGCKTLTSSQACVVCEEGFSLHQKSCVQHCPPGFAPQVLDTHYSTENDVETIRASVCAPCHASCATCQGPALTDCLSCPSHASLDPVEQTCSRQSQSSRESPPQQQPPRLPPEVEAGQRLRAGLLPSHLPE
Type: biochemical
Protocol: Furin-overexpressing MDCK cells were grown using 15 cm plates (Falcon) in DMEM/High modified synthetic media (Thermo Scientific) supplemented with Gentamicin (10 μg/ml). Each two days the medium was collected. Cells were replenished with fresh medium. To remove cell debris, the collected samples were spun at 3000×g and the supernatant fraction was filtered through a 0.22 μm filter (Corning) and then 100-fold concentrated using a Pellicon XL Biomax 10 concentrator (Millipore). Furin was isolated from the concentrated medium samples using Ni^2+-chelating chromatography on a HiTrap Chelating HP 1.6×2.5 cm column (Amersham Biosciences) equilibrated with 20 mM Tris-HCl buffer, pH 8.0, containing 1M NaCl. To remove the impurities, the column was washed with 50 ml of the same buffer containing 25 mM imidazole. Furin was eluted using 500 mM imidazole. The purified fractions were pooled, concentrated using an Amicon Ultra 50K-cutoff membrane (Millipore), dialyzed against PBS and stored at −80° C. According to SDS-PAGE followed by Coomassie staining of the gel, Western blotting and enzyme activity assays the purity of the isolated furin samples was >95%. The typical yield of purified furin was 0.8-1 mg/liter of cell culture medium. Specific activity of purified furin was >120 units where one unit is the amount of furin that will cleave 1.0 pmol methyl-coumaryl-7-amide (AMC) from the Pyr-Arg-Thr-Lys-Arg-methyl-coumaryl-7-amide (Pyr-RTKR-AMC) substrate per min at ambient temperature, pH 7.5.
Furin activity was measured in triplicate in wells of a 96-well plate in 0.2 ml 50 mM HEPES, pH 7.5, containing 1 mM CaCl2, 0.005% Brij-35 and 20% glycerol. Pyr-RTKR-AMC (25 μM) was used as a substrate. The concentration of furin in the reactions was 50 nM. The steady-state rate of substrate hydrolysis was monitored continuously (λex=360 nm and λem=465 nm) at 37° C. using a Spectramax Gemini EM fluorescent spectrophotometer (Molecular Devices).
Furin (50 nM) was preincubated for 30 min at 20° C. with increasing concentrations of the individual compounds in 0.1 ml of 50 mM HEPES, pH 7.5, containing 1 mM CaCl2, 20% glycerol and 0.005% Brij 35. The Pyr-RTKR-AMC substrate ([…]) was added in 0.1 ml of the same buffer. Reaction velocity was monitored continuously at λex=360 nm and λem=465 nm on a Spectramax Gemini EM fluorescence spectrophotometer. All assays were performed in triplicate in wells of a 96-well plate. IC50 values were calculated by determining the concentrations of the compounds needed to inhibit 50% of the furin activity against Pyr-RTKR-AMC substrate. GraphPad Prism was used as fitting software.
`CC(=O)N[C@@H](CCCNC(=N)N)C(=O)N[C@H](C(=O)N[C@@H](Cc1ccc(N=C(N)N)cc1)C(=O)NCc1ccc(C(=N)N)cc1)C(C)C` [Compound A] showed an IC50 of 7 nM. Molecule `CC(=O)N[C@@H](CCCNC(=N)N)C(=O)N[C@H](C(=O)N[C@@H](Cc1ccc(N=C(N)N)cc1)C(=O)NCc1ccc(C(=N)N)c(F)c1)C(C)C` [Compound B] has an IC50 of 3.7 nM. `CC(=O)N[C@@H](CCCNC(=N)N)C(=O)N[C@H](C(=O)N[C@@H](Cc1ccc(N=C(N)N)cc1)C(=O)NCc1ccc(C(=N)N)cc1F)C(C)C` [Compound C] showed an IC50 of 9 nM. Molecule `CC(=O)N[C@@H](CCCNC(=N)N)C(=O)N[C@H](C(=O)N[C@@H](Cc1ccc(N=C(N)N)cc1)C(=O)NCc1ccc(/C(N)=N/O)cc1)C(C)C` [Compound D] has an IC50 of 1200 nM. `CC(C)[C@H](NS(=O)(=O)Cc1ccc(C(=N)N)cc1)C(=O)N[C@@H](CCCNC(=N)N)C(=O)NCc1ccc(C(=N)N)cc1` [Compound E] gave an IC50 of 300 nM.

The molecules below were run on Dengue (assay: Dengue viral replication assay, secondary CPE/virus yield reduction (VYR)). Details: read-out: cellular activity against Dengue (EC90).
Type: cell-based
Protocol: Primary cytopathic effect (CPE) reduction assay. Four-concentration CPE inhibition assays are performed. Confluent or near-confluent cell culture monolayers in 96-well disposable microplates are prepared. Cells are maintained in MEM or DMEM supplemented with FBS as required for each cell line. For antiviral assays the same medium is used but with FBS reduced to 2% or less and supplemented with 50 μg/ml gentamicin. The test compound is prepared at four log 10 final concentrations, usually 0.1, 1.0, 10, and 100 μg/ml or μM. The virus control and cell control wells are on every microplate. In parallel, a known active drug is tested as a positive control drug using the same method as is applied for test compounds. The positive control is tested with each test run. The assay is set up by first removing growth media from the 96-well plates of cells. Then the test compound is applied in 0.1 ml volume to wells at 2× concentration. […] The dye content in each well is quantified using a 96-well spectrophotometer at 540 nm wavelength. […]
Secondary CPE/Virus yield reduction (VYR) assay. […] The incorporated dye content is quantified as described above. […] Compounds observed to be active above are further evaluated by VYR assay. […] Wells are scored for presence or absence of virus after distinct CPE (measured by neutral red uptake) is observed. […]
`CC(=O)N[C@@H](CCCNC(=N)N)C(=O)N[C@H](C(=O)N[C@@H](Cc1ccc(N=C(N)N)cc1)C(=O)NCc1ccc(C(=N)N)cc1)C(C)C` [Compound A] showed an EC90 of 14000 nM.
